Measurements from patent US20120189673A1, “POLYPEPTIDES AND USES THEREOF” (priority 2009, published 2012).
Entries after “also recorded” stand apart in the source; their conditions may differ. Read-outs that look alike come from different tables or passages of the source.

What was measured:
[1] = test system: intrinsic pathway of coagulation in normal human plasma; experiment: Clotting assay: activated partial thromboplastin time (aPTT); format: biochemical
Protocol: (§1) Clotting assays. All clotting times were measured using an Amelung coagulometer. Activated partial thromboplastin time (aPTT) was measured by incubating the peptides diluted in sterile water at the indicated concentrations, with 100 μL citrated human plasma for 1 minute followed by the addition of 100 μL aPTT reagent (aPTT Automate, Diagnostica Stago) for 60 seconds at 37° C. Clotting was initiated by the addition of 100 μL of a 25-mM CaCl2 solution. In the prothombrin time assay (PT), clotting was initiated by the addition of 100 μL Thrombomax with calcium (PT reagent; Sigma-Aldrich). For measuring the thrombin clotting time (TCT), clotting was initiated by the addition of 100 μL Accuclot thrombin time reagent (TCT reagent; Sigma-Aldrich).

[2] = test system: extrinsic pathway of coagulation in normal human plasma; experiment: Clotting assay: prothrombin time (PT); format: biochemical
Protocol: as §1

[3] = test system: thrombin induced fibrin network formation in normal human plasma; experiment: Clotting assay: thrombin clotting time (TCT); format: biochemical
Protocol: as §1

[4] = test system: E. coli; experiment: Viable count analysis, E. coli; format: cell-based, Escherichia coli; settings: for antibacterial activity (cfu) / bactericidal activity in presence of human plasma: 10 mM Tris; for antibacterial activity (cfu): pH 7.4 buffer, dose-response (FIG. 34C); for bactericidal activity in presence of human plasma: 0.15 M NaCl, pH 7.4 with 20% human citrate plasma, versus buffer; for bactericidal activity in heat-inactivated plasma: 20% heat-inactivated human citrate plasma
Protocol: Viable count analysis. E. coli ATCC 25922 bacteria were grown to mid-logarithmic phase in Todd-Hewitt (TH) medium. Bacteria were washed and diluted in 10 mM Tris, pH 7.4 containing 5 mM glucose. E. coli ATCC 25922 (50 μl; 2×10^6 cfu/ml) were incubated, at 37° C. for 2 h with peptides at the indicated concentrations. Other experiments with the TFPI-peptides and LL-37 were performed in 10 mM Tris, pH 7.4, containing also 0.15 M NaCl, with normal or heat inactivated 20% citrate-plasma (PP). Serial dilutions of the incubation mixture were plated on TH agar, followed by incubation at 37° C. overnight and cfu determination.
(§2) Viable count analysis—E. coli strains were grown to mid-logarithmic phase in Todd-Hewitt (TH). P. aeruginosa strains were grown in TH overnight. Bacteria were washed and diluted in 10 mM Tris, pH 7.4 containing 5 mM glucose. 2×10^6 cfu/ml bacteria were incubated in 50 μl, at 37° C. for 2 h with the C-terminal TFPI-derived peptides GGL27, TKR22, or LIK17 at the indicated concentrations. Additional experiments were performed in 10 mM Tris, pH 7.4, containing 0.15 M NaCl, either alone or with 20% normal or heat inactivated citrate-plasma. Serial dilutions of the incubation mixture were plated on TH agar, followed by incubation at 37° C. overnight and cfu determination.

[5] = test system: P. aeruginosa; experiment: Viable count analysis, P. aeruginosa; format: cell-based, Pseudomonas aeruginosa; settings: for killing in human plasma compared with physiological buffer: 20% human citrate plasma
Protocol: as §2

[6] = test system: E. coli; experiment: Bacterial membrane permeabilization, impermeant probe FITC (fluorescence microscopy); format: cell-based, Escherichia coli; settings: 30 μM peptide
Protocol: Fluorescence microscopy. The impermeant probe FITC (Sigma-Aldrich, St. Louis, USA) was used for monitoring of bacterial membrane permeabilization. S. aureus ATCC 29213 bacteria were grown to mid-logarithmic phase in TSB medium. Bacteria were washed and resuspended in buffer (10 mM Tris, pH 7.4, 0.15M NaCl, 5 mM glucose) to yield a suspension of 1×10^7 CFU/ml. 100 μl of the bacterial suspension was incubated with 30 μM of the respective peptides at 30° C. for 30 min. Microorganisms were then immobilized on poly (L-lysine)-coated glass slides by incubation for 45 min at 30° C., followed by addition onto the slides of 200 μl of FITC (6 μg/ml) in buffer and a final incubation for 30 min at 30° C. […] Bacteria were visualized using a Nikon Eclipse TE300 (Nikon, Melville, USA) inverted fluorescence microscope equipped with a Hamamatsu C4742-95 cooled CCD camera (Hamamatsu, Bridgewater, USA) and a Plan Apochromat ×100 objective (Olympus, Orangeburg, USA). […]
Fluorescence microscopy—Fluorescein isothiocyanate (FITC; Sigma-Aldrich, St. Louis, USA) was used for monitoring of bacterial membrane permeabilization. […] Bacteria were visualized using a Nikon Eclipse TE300 (Nikon, Melville, USA) inverted fluorescence microscope equipped with a Hamamatsu C4742-95 cooled CCD camera (Hamamatsu, Bridgewater, USA) and a Plan Apochromat ×100 objective (Olympus, Orangeburg, USA). […]

Sequence	activated partial thromboplastin time (aPTT) [1]	activated partial thromboplastin time (aPTT) ([1]; listed as GGL-27)	prothrombin time (PT) [2]	prothrombin time (PT) ([2]; listed as GGL-27)	thrombin clotting time (TCT) [3]	thrombin clotting time (TCT) ([3]; listed as GGL-27)	antibacterial activity (cfu) [4]	bactericidal activity in presence of human plasma [4]	bactericidal activity in heat-inactivated plasma [4]	potentiating effect of native plasma compared with heat-inactivated plasma [5]	killing in human plasma compared with physiological buffer [5]	permeabilization of bacterial membranes [6]
GGLIKTKRKRKKQRVKIAYEEIFVKNM [GGL27, C-terminal peptide of TFPI, plasmin-generated]	impair the intrinsic pathway of coagulation	impairs coagulation in a dose dependent manner	affected prothrombin time	impairs coagulation in a dose dependent manner	not significantly affected	impairs coagulation in a dose dependent manner	significant antibacterial activity	enhanced in human plasma; also recorded: significantly enhanced	largely abolished in heat-inactivated plasma; also recorded: abolished the potentiation	less significant	not enhanced	permeabilized bacterial membranes
LIKTKRKRKKQRVKIAY [LIK17]	impair the intrinsic pathway of coagulation	–	affected prothrombin time	–	not significantly affected	–	significant antibacterial activity	significantly enhanced	abolished the potentiation	less significant	not enhanced	permeabilized bacterial membranes
